Reference: PubChem BioAssay AID1963872 (Molecular Pharmacology Branch, DTP, NCI, 2024)

Test system: KRAS patient-derived spheroids with HUVEC/MSC, viability
Test: Anticancer human tumor 519858-162-T-J1-PDC patient-derived colon adenocarcinoma cell line growth inhibition [KRAS2]
Conditions: for IC50: curve of first compound; for viability, T/C: stronger effect = lower value
From the text: Multicellular complex tumor spheroid response to RAS pathway inhibitors in combination with a targeted agents in patient-derived cell lines with oncogenic KRAS variants from multiple cancer types
A high-throughput screen of multi-cell type tumor spheroids was designed to identify active combinations of targeted small molecules and KRAS pathway inhibitors. Complex spheroids include a stromal component modeled by human endothelial cells (HUVEC) and fibroblasts modeled by human mesenchymal stem cells (MSCs). The concentration ranges selected for each drug and investigational agent were based upon clinically achievable concentrations if the clinical Cmax of the agent was known.
Compounds. The drugs and investigational agents: BI-3406 (NSC825286), BAY-293 (NSC824723), batoprotafib (TNO155; NSC825523), sotorasib (AMG 510; NSC818433), MRTX1257 (NSC819558), elimusertib (BAY 1895344; NSC800525), molibresib (GSK525762; NSC774829), temuterkib (LY3214996; NSC803410), venetoclax (NSC766270), alisertib (NSC759677), olaparib (NSC753686), talazoparib (NSC767125), erdafitinib (NSC781556), ipatasertib (NSC767898), cabozantinib (NSC761068), nintedanib (NSC756659), abemaciclib (NSC768073), docetaxel (NSC628503), trametinib (NSC758246), and sapanisertib (NSC764658) were obtained from the National Cancer Institute (NCI) Developmental Therapeutics Program Chemical Repository. The FDA-approved anticancer drug set is available from the Developmental Therapeutics Program. […] The stock solutions were prepared in dimethyl sulfoxide (DMSO, Sigma-Aldrich, St. Louis, MO, cat. D2650) at 800-fold the tested concentration and stored at -70 degrees C prior to their use. All drugs and investigational agents were tested over a range starting from a high concentration at or near the clinical Cmax and decreasing in half-log increments. If the clinical Cmax for an agent had not been determined, the highest concentration tested was 10 microM.
Cell Culture. All cells were maintained in an incubator at 37 degrees C and 5% CO2 with 95% humidity. The PDC lines were cultured according to standard operating procedures established by the NCI PDMR (https://pdmr.cancer.gov/sops/default.htm). Briefly, all PDCs were thawed and cultured in Matrigel-coated flasks prepared with a working solution of 1X Ham's F-12 nutrient mix, without supplementation (Invitrogen, Waltham, MA, cat. 11765054), 100 U/mL penicillin-streptomycin (Invitrogen, cat. 15140122), and 2.5% Matrigel (Corning Inc., Corning, NY, cat. 354248) for the first three passages. All PDCs were cultured in complete DMEM/F-12 media containing advanced DMEM/F-12 (Invitrogen, cat. 12634028), 4.9% defined fetal bovine serum, heat inactivated (HyClone Laboratories Inc., Logan, UT, cat. SH30070.03HI), 389 ng/mL hydrocortisone (Sigma-Aldrich, cat. H4001), 9.7 ng/mL human EGF recombinant protein (Invitrogen, cat. PHG0313), 23.4 microg/mL adenine (Sigma-Aldrich, cat. A2786), 97.3 U/mL penicillin-streptomycin (Invitrogen, cat. 15140122), 1.9 mM L-glutamine (Invitrogen, cat. 25030081), and 9.7 microM Y-27632 dihydrochloride (Tocris Bioscience, Bristol, United Kingdom, cat. 1254). The PDCs were cultured in complete DMEM/F12 media without 9.7 microM Y-27632 dihydrochloride for at least two passages prior to the screen. The established cell line HOP-62 was cultured in RPMI 1640 medium, HEPES (Invitrogen, cat. 22400105) with 10% defined fetal bovine serum (HyClone Laboratories Inc., cat. SH30070.03) and 2 mM L-glutamine (Invitrogen, cat. 25030081). The pooled donor HUVEC were cultured in endothelial cell growth medium 2 (PromoCell, Heidelberg, Germany, cat. C-22011) and the hMSC were cultured in mesenchymal stem cell growth medium 2 (PromoCell, cat. C-28009). For all experiments, HUVEC and hMSC were used at passages </=5, while the malignant cell lines were used at passages </=15. […]

[1] = second compound 0.1 µM, first compound 0.0316 µM
[2] = second compound 0.316 µM, first compound 0.0316 µM
[3] = second compound 1 µM, first compound 0.0316 µM
[4] = second compound 3.16 µM, first compound 0.0316 µM
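Further: compound exposure lasted seven days before readout.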
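Wherever viability, T/C is given: 100% = DMSO vehicle control viability.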

CC(=O)Nc1cccc(-n2c(=O)n(C3CC3)c(=O)c3c(Nc4ccc(I)cc4F)n(C)c(=O)c(C)c32)c1 + C=CC(=O)N1CCN(c2nc(OCC3CCCN3C)nc3c2CCN(c2cccc4cccc(C)c24)C3)CC1CC#N
IC50 (second compound 0.0316 µM): 3.55 nM | IC50 (second compound 0.1 µM): 5.97 nM | IC50 (second compound 0.316 µM): 4.47 nM | IC50 (second compound 1 µM): 0.581 nM | IC50 (second compound 3.16 µM): 0.786 nM | viability, T/C (second compound 0.0316 µM, first compound 0.0001 µM): 90.6% | viability, T/C (second compound 0.0316 µM, first compound 0.000316 µM): 76% | viability, T/C (second compound 0.0316 µM, first compound 0.001 µM): 65.5% | viability, T/C (second compound 0.0316 µM, first compound 0.00316 µM): 57.8% | viability, T/C (second compound 0.0316 µM, first compound 0.01 µM): 29.8% | viability, T/C (second compound 0.0316 µM, first compound 0.0316 µM): 19.4% | viability, T/C (second compound 0.1 µM, first compound 0.0001 µM): 59.7% | viability, T/C (second compound 0.1 µM, first compound 0.000316 µM): 62.1% | viability, T/C (second compound 0.1 µM, first compound 0.001 µM): 75.4% | viability, T/C (second compound 0.1 µM, first compound 0.00316 µM): 63.7% | viability, T/C (second compound 0.1 µM, first compound 0.01 µM): 38.5% | viability, T/C [1]: 14.6% | viability, T/C (second compound 0.316 µM, first compound 0.0001 µM): 80% | viability, T/C (second compound 0.316 µM, first compound 0.000316 µM): 64% | viability, T/C (second compound 0.316 µM, first compound 0.001 µM): 82.4% | viability, T/C (second compound 0.316 µM, first compound 0.00316 µM): 58.1% | viability, T/C (second compound 0.316 µM, first compound 0.01 µM): 28.2% | viability, T/C [2]: 17.5% | viability, T/C (second compound 1 µM, first compound 0.0001 µM): 63.1% | viability, T/C (second compound 1 µM, first compound 0.000316 µM): 42.1% | viability, T/C (second compound 1 µM, first compound 0.001 µM): 49.9% | viability, T/C (second compound 1 µM, first compound 0.00316 µM): 40% | viability, T/C (second compound 1 µM, first compound 0.01 µM): 31% | viability, T/C [3]: 11.4% | viability, T/C (second compound 3.16 µM, first compound 0.0001 µM): 73.5% | viability, T/C (second compound 3.16 µM, first compound 0.000316 µM): 59.1% | viability, T/C (second compound 3.16 µM, first compound 0.001 µM): 41% | viability, T/C (second compound 3.16 µM, first compound 0.00316 µM): 44% | viability, T/C (second compound 3.16 µM, first compound 0.01 µM): 16.7% | viability, T/C [4]: 7.17%

CC(C)NCC(C(=O)N1CCN(c2ncnc3c2C(C)CC3O)CC1)c1ccc(Cl)cc1 (stereo not given) + COc1cc2nc(C)nc(NC(C)c3cc(N)cc(C(F)(F)F)c3)c2cc1OC1CCOC1
IC50 (second compound 0.1 µM): 10000 nM | IC50 (second compound 0.316 µM): > 10000 nM | IC50 (second compound 1 µM): > 10000 nM | IC50 (second compound 3.16 µM): > 10000 nM | IC50 (second compound 10 µM): > 10000 nM | viability, T/C [1]: 72.5% | viability, T/C (second compound 0.1 µM, first compound 0.1 µM): 89.6% | viability, T/C (second compound 0.1 µM, first compound 0.316 µM): 86.2% | viability, T/C (second compound 0.1 µM, first compound 1 µM): 99.4% | viability, T/C (second compound 0.1 µM, first compound 3.16 µM): 41.4% | viability, T/C (second compound 0.1 µM, first compound 10 µM): 71% | viability, T/C [2]: 67.6% | viability, T/C (second compound 0.316 µM, first compound 0.1 µM): 105% | viability, T/C (second compound 0.316 µM, first compound 0.316 µM): 89.6% | viability, T/C (second compound 0.316 µM, first compound 1 µM): 74.3% | viability, T/C (second compound 0.316 µM, first compound 3.16 µM): 65.2% | viability, T/C (second compound 0.316 µM, first compound 10 µM): 78.4% | viability, T/C [3]: 77.4% | viability, T/C (second compound 1 µM, first compound 0.1 µM): 113% | viability, T/C (second compound 1 µM, first compound 0.316 µM): 78.2% | viability, T/C (second compound 1 µM, first compound 1 µM): 66% | viability, T/C (second compound 1 µM, first compound 3.16 µM): 49.4% | viability, T/C (second compound 1 µM, first compound 10 µM): 60.3% | viability, T/C [4]: 78% | viability, T/C (second compound 3.16 µM, first compound 0.1 µM): 69.2% | viability, T/C (second compound 3.16 µM, first compound 0.316 µM): 56.6% | viability, T/C (second compound 3.16 µM, first compound 1 µM): 56.1% | viability, T/C (second compound 3.16 µM, first compound 3.16 µM): 61.5% | viability, T/C (second compound 3.16 µM, first compound 10 µM): 64.1% | viability, T/C (second compound 10 µM, first compound 0.0316 µM): 58.7% | viability, T/C (second compound 10 µM, first compound 0.1 µM): 62% | viability, T/C (second compound 10 µM, first compound 0.316 µM): 61.2% | viability, T/C (second compound 10 µM, first compound 1 µM): 52.3% | viability, T/C (second compound 10 µM, first compound 3.16 µM): 58.8% | viability, T/C (second compound 10 µM, first compound 10 µM): 72%
